The values that follow are results of earlier work, collected in US20230292757A1, “SYNERGISTIC AGROCHEMICAL COMPOSITION COMPRISING DIAMIDES AND PLANT GROWTH REGULATORS” (priority 2020, published 2023).

In one data set the test system is S. littoralis. Particulars: oral.
The test system of a further data set is L. migratoria. Particulars: oral.

`C=C1C[C@]23C[C@@]1(O)CC[C@H]2[C@@]12C=C[C@H](O)[C@@](C)(C(=O)O1)[C@H]2[C@@H]3C(=O)O` [Gibberellic acid (GA3), Gibberellic acid]: the food consumption result in the data set on S. littoralis and in the data set on L. migratoria was “significant reduction” throughout.
